# Test results: ChEMBL document CHEMBL1221243, “Design, synthesis, and biological evaluation of a novel series of quercetin diacylglucosides as potent anti-MRSA and anti-VRE agents” (Bioorg Med Chem Lett, 2010)
# pIC50, pKi: −log10 of the molar value.
# Key:
# Escherichia coli = experiment: Antimicrobial activity against Escherichia coli K-12 after 24 hrs by microdilution assay; type: functional; settings: K-12, 24 h
# Staphylococcus aureus [1] = experiment: Antimicrobial activity against methicillin-resistant Staphylococcus aureus OM481 after 24 hrs by microdilution assay; type: functional; settings: OM481, 24 h
# [2] = Inhibition of Escherichia coli DNA gyraseB assessed as inhibition of pBR322 supercoiling by densitometry
# Staphylococcus aureus [3] = experiment: Antimicrobial activity against methicillin-sensitive Staphylococcus aureus 209P after 24 hrs by microdilution assay; type: functional
# Staphylococcus aureus [4] = experiment: Antimicrobial activity against methicillin-resistant Staphylococcus aureus COL after 24 hrs by microdilution assay; type: functional
# [5] = Inhibition of Escherichia coli DNA gyraseB calculated by AutoDock docking into the ATP binding site
# Staphylococcus aureus [6] = experiment: Antimicrobial activity against methicillin-resistant Staphylococcus aureus OM584 after 24 hrs by microdilution assay; type: functional; settings: OM584, 24 h
# Staphylococcus aureus [7] = experiment: Antimicrobial activity against methicillin-resistant Staphylococcus aureus N315 after 24 hrs by microdilution assay; type: functional; settings: N315, 24 h
# Enterococcus [8] = experiment: Antimicrobial activity against vancomycin-resistant Enterococcus NCTC 12201 after 24 hrs by microdilution assay; type: functional; settings: NCTC 12201, 24 h
# Staphylococcus aureus [9] = experiment: Antimicrobial activity against vancomycin intermediate-resistant Staphylococcus aureus Mu50 after 24 hrs by microdilution assay; type: functional; settings: Mu50, 24 h
# Enterococcus [10] = experiment: Antimicrobial activity against vancomycin-resistant Enterococcus FN-1 after 24 hrs by microdilution assay; type: functional; settings: FN-1, 24 h
SMILES,MIC (Escherichia coli) [µg/mL],MIC (Staphylococcus aureus [1]) [µg/mL],pIC50 [2],MIC (Staphylococcus aureus [3]) [µg/mL],MIC (Staphylococcus aureus [4]) [µg/mL],pKi [5],MIC (Staphylococcus aureus [6]) [µg/mL],MIC (Staphylococcus aureus [7]) [µg/mL],MIC (Enterococcus [8]) [µg/mL],MIC (Staphylococcus aureus [9]) [µg/mL],MIC (Enterococcus [10]) [µg/mL]
CCn1cc(C(=O)O)c(=O)c2cc(F)c(N3CCNCC3)cc21 [NORFLOXACIN],0.25,64,7.05,0.5,1,10.05,128,2,,,
CN[C@H](CC(C)C)C(=O)N[C@H]1C(=O)N[C@@H](CC(N)=O)C(=O)N[C@H]2C(=O)N[C@H]3C(=O)N[C@H](C(=O)N[C@H](C(=O)O)c4cc(O)cc(O)c4-c4cc3ccc4O)[C@H](O)c3ccc(c(Cl)c3)Oc3cc2cc(c3O[C@@H]2O[C@H](CO)[C@@H](O)[C@H](O)[C@H]2O[C@H]2C[C@](C)(N)[C@H](O)[C@H](C)O2)Oc2ccc(cc2Cl)[C@H]1O [VANCOMYCIN],,0.25,,0.25,0.25,,0.25,0.25,> 128,8,> 128
